Experiments:
[1] = tested on: FGFR3; test: Phage display selection against FGFR3 with Miseq analysis of the bound phages; format: binding; settings: for 1 nM Num. of reads: phage library after panning Round 4, bound to 1 nM FGFR3; for 10 nM Num. of reads: phage library after panning Round 4, bound to 10 nM FGFR3; for 100 nM Num. of reads: phage library after panning Round 4, bound to 100 nM FGFR3; for 1 nM Ranking / 10 nM Ranking / 100 nM Ranking: rank by number of reads; for 1 nM Ranking: 1 nM FGFR3; for 10 nM Ranking: 10 nM FGFR3; for 100 nM Ranking: 100 nM FGFR3
Experimental: The collected phage library was mixed with 100 nM of FGFR3 solution and allowed to react overnight at 4° C. (Table 9: Panning Round 1). After the reaction, the binding phages were captured by magnetic beads modified with protein A, and washed three times with PBS-T, followed by eluting the bound phages with Gly-HCl (pH 2.0). After neutralizing with 2M Tris, the pages were infected to E. coli (TG1 strain). After 4 hours of incubation, helper phages were added, and the E. coli (TG1 strain) were allowed to produce phages overnight. Next, phage solution was prepared from the culture supernatant. The prepared phage solution was mixed with FGFR3 solution and allowed to react overnight at 4° C. (Table 9: Panning Round 2). After the reaction, the bound phages were eluted. Phage solution prepared in the same way was mixed with FGFR3 solution and allowed to react at 4° C. for 1 hour (Table 9: Panning Round 3). After the reaction, the bound phages were eluted. This operation was further repeated, and after Panning Round 4, the bound phages were eluted. Note that as the rounds proceeded, the number of washes with PBS-T was increased. (Table 9). The titer of the Output phage in each round was also determined. The titer of phage was determined from the number of colonies obtained by incubating the E. coli TG1 strain contacted with the phage at 37° C. overnight. The phage library eluted after panning of Example 7 (Table 9: Input phage (Round 4)) was subjected to Human IgG Fc-immobilized plate, and negative selection was performed by collecting unbound phages. The phage library was then acted to FGFR3 prepared to concentrations of 100 nM, 10 nM, and 1 nM. Bound phages were then collected. The genomic DNA of the collected phages was extracted, samples were prepared according to Illumina's protocol for Miseq, and a comprehensive analysis of the phage genomic DNA was performed. Among the sequences obtained, 20 sequences high incidence rates were selected (Table 11). The yeast cells acquired in the screening of Example 8 were seeded onto SDCAA agar plates and cultured. Fourteen single colonies formed on the agar plates were randomly selected, and for each clone, the peptide DNA sequence incorporated into the yeast expression plasmid was analyzed using the Sanger method (Table 12).

[2] = tested on: FGFR1; test: Phage display selection against FGFR1 with Miseq analysis of the bound phages; format: binding; settings: for 1 nM Num. of reads: phage library after panning Round 5, bound to 1 nM FGFR1; for 10 nM Num. of reads: phage library after panning Round 5, bound to 10 nM FGFR1; for 100 nM Num. of reads: phage library after panning Round 5, bound to 100 nM FGFR1; for 1 nM Ranking / 10 nM Ranking / 100 nM Ranking: rank by number of reads; for 1 nM Ranking: 1 nM FGFR1; for 10 nM Ranking: 10 nM FGFR1; for 100 nM Ranking: 100 nM FGFR1
Experimental: The collected phage library was mixed with 100 nM of FGFR3 solution and allowed to react overnight at 4° C. (Table 5: Panning Round 1). After the reaction, the binding phages were captured by magnetic beads modified with protein A, and washed three times with PBS-T, followed by eluting the bound phages with Gly-HCl (pH 2.0). After neutralizing with 2M Tris, the phages were infected to E. coli. After 4 hours of incubation, helper phages were added, and the E. coli were allowed to produce phages overnight. Next, phage solution was prepared from the culture supernatant. The prepared phage solution was mixed with FGFR3 solution and allowed to react overnight at 4° C. (Table 5: Panning Round 2). After the reaction, the bound phages were eluted. Phage solution prepared in the same way was mixed with FGFR3 solution and allowed to react at 4° C. for 1 hour (Table 5: Panning Round 3). After the reaction, the bound phages were eluted. This operation was repeated two more times, and after Panning Round 5, the bound phages were eluted. Note that as the rounds proceeded, the number of washes with PBS-T was increased. (Table 5). The titer of the Output phage in each round was also determined. The titer of phage was determined from the number of colonies obtained by incubating the E. coli TG1 strain contacted with the phage at 37° C. overnight. As shown in FIG. 3<Input phage (Round 5)>, the eluted phage library after panning was subjected to Human IgG Fc-immobilized plate, and negative selection was performed by collecting unbound phages. The phage library was then acted to FGFR1 prepared to concentrations of 100 nM, 10 nM, and 1 nM. Bound phages were then collected. The phagemid DNA of the collected phages was extracted, samples were prepared according to Illumina's protocol for Miseq, and a comprehensive analysis of the phagemid DNA was performed. Among the sequences obtained, 23 sequences with high incidence rates were selected (Table 6).

Sequence	1 nM Num. of reads [1]	10 nM Num. of reads [1]	100 nM Num. of reads [1]	1 nM Ranking [1]	10 nM Ranking [1]	100 nM Ranking [1]	1 nM Num. of reads [2]	10 nM Num. of reads [2]	100 nM Num. of reads [2]	1 nM Ranking [2]	10 nM Ranking [2]	100 nM Ranking [2]
CAAELAALEAELAALEGGRTPVVTTMGKLMGLKLKLQQLKRAC [F3-100n322]	1234	813	1061	12	16	18						
CAAELAALEAELAALEGFGGVVYSCEWQAVYLKYKLMRLKQAC [100n17]							8443	10095	8500	1	1	1
CAAELAALDAELAALEGARLGKMSKVGKLIKLKEKLQNLKMAC [100n182]							1428	1468	937	10	12	13
CAAELAALEAELAALEGADAFTLGSAGKLMMLKEKLNHLKHAC [100n1348]							349	473	346	27	30	30
CAAELAALEAELAALEGVPALVGQEGGKLVLLKWKLWRLKNAC [100n36]							483	677	398	24	24	28
CAAELAALEAELAALEGASTPTLESRGKLGSLIFKLRQLKVAC [F3-100n50]	1149	820	1121	14	15	14						
CAAELAALEAELAALEGGMATDHMNRGKLYRLKNKLHFLKIAC [100n781]							352	262	228	26	48	40
CAAELAALEAELAALEGVRPETMSQVGKLLVLKHRLGQLKRAC [F3-100n9]	3326	2152	2566	1	3	4						
CAAELAALEAELAALEGKDFRTIELVGKLVLLKYKLNNLKEAC [F3-100n548]	1248	873	1088	11	13	17						
CAAELAALEAELAALEGSSMDHVAYTGKLRMLKFRLELLKGAC [100n1543]							233	276	216	37	43	43
CAAELAALEAELAALEGDCLAGGCSFGKLLNLKQKLIRLKRAC [100n108]							873	1155	464	13	14	22
CAAELAALEAELAALEGVGRLYHMASGKLDRLKGKLMVLKYAC [100n82]							6561	7109	4896	3	4	5
CAAELAALEAELAALEGPHPRHHHPHGKLKKLKRKLYKLKQAC [100n222]							525	776	541	22	22	20
CAAELAALEAELAALEGQTFMNPHRLGKLDKLKLKLVHLKRAC [100n8]							4243	3717	1974	7	7	8
CAAELAALEAELAALEGVKELTLGTVGKLMSLKYKLWSLKQAC [100n83]							4939	6581	3079	5	5	6
CAAELAALEAELAALEGREPSGAMGSGKLKRLKYKLQNLKHAC [100n1793]							493	493	395	23	29	29
CAAELAALEAELAALEGMSNHTLGSIGKLMLLKDKLESLKEAC [100n1074]							756	688	333	16	23	31
CAAELAALEAELAALEGINAVPMSGRGKLYSLKNKLHYLKNAC [100n12]							273	267	258	30	46	34
CAAELAALEAELAALEGLGGFFNLRTGKLDELKMKLQHLKQAC [100n84]							795	854	563	15	20	19
CAAELAALEAELAALEGAWVEQVNRRGKLDGLKMKLQRLKLAC [100n51]							704	1000	649	19	16	16
CAAELAALEAELAALEGGRFSGLQEKGKLYGLKNKLHYLKRAC [100n368]							2077	2177	1695	8	9	11
CAAELAALEAELAALEGAVGDKRKSKGKLMMLKQKLELLKGAC [100n85]							6769	9230	7482	2	2	2
CAAELAALEAELAALEGSVALGNKAGGKLRLLKLKLELLKDAC [100n1314]							260	406	238	34	31	38
CAAELAALEAELAALEGGDEVPHVGGGKLKMLKYQLNNLKHAC [100n417]							721	1010	762	18	15	14
CAAELAALEAELAALEGNTANDPTASGKLKYLKYKLSNLKHAC [100n606]							872	894	609	14	18	18
CAAELAALEAELAALEGAKKAEEGQKGKLYRLKNKLHYLKSAC [100n423]							561	867	439	21	19	26
